# The source made the active and inactive calls.
# Assays:
# [1] = Luminescence Cell-Based Dose Response HTS to Identify Inhibitors of 5'UTR Stem-Loop Driven Prion Protein mRNA Translation in H4 Neuroglioblastoma Cells. [Related pubchem assays: 1827 (Project Summary), 1813 (Primary HTS)]; format: functional
# [2] = viability of PTEN-deleted HCT116 cells – cell-based, HCT116 PTEN knockout, dose response (AID 1047); format: functional;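 further: HCT116 colon tumor cells with PTEN knocked out; cells exposed to compound for 60 hours before readout; potency for loss of cell viability measured by luminescence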
# [3] = luciferase reporter signal suppression in cells – H4 neuroglioma cells, luminescence, dose response (AID 1990); format: functional, cell-based
# [4] = alpha-synuclein stem-loop luciferase translation blockers – H4 neuroglioma cells, luminescence, confirmation (AID 1988); format: functional, cell-based
# Cytochrome P450 1A2 = molecular target: T1, Cytochrome P450 1A2 (Homo sapiens, UniProt P05177);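 further: PubChem cytochrome P450 panel assay, CYP1A2 panel member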
# T1 sequence (P05177 whole entry): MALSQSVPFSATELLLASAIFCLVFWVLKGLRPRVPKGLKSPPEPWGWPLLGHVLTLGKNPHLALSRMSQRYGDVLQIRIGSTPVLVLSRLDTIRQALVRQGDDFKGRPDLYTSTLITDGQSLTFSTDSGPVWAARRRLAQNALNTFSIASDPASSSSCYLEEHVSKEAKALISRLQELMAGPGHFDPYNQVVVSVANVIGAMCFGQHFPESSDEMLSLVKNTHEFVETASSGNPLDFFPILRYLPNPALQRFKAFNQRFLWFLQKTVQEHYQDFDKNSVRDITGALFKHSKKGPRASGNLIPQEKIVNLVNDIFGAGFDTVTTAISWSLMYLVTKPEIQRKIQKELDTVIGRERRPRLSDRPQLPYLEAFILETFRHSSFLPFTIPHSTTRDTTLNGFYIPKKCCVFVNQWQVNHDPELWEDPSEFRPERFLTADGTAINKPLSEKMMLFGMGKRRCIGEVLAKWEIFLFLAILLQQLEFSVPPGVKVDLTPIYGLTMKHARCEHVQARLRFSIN
# Cytochrome P450 3A4 = Cytochrome P450 3A4 (Homo sapiens, UniProt P08684);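 further: CYP3A4 tested as one member of a cytochrome P450 panel screen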
# Cytochrome P450 2D6 = Cytochrome P450 2D6 (Homo sapiens, UniProt P10635);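 further: CYP2D6 member of a cytochrome P450 panel assay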
# Cytochrome P450 2C9 = Cytochrome P450 2C9 (Homo sapiens, UniProt P11712)
# [5] = molecular target: T2, Corticotropin-releasing factor receptor 2/Corticotropin-releasing factor-binding protein (Homo sapiens, UniProt P24387+Q13324); assay: activators of CRF receptor 2 with binding protein – uHTS hits, confirmation (AID 602473); format: functional; details: read-out: EC50_Mean
# T2 sequence (Q13324 whole entry): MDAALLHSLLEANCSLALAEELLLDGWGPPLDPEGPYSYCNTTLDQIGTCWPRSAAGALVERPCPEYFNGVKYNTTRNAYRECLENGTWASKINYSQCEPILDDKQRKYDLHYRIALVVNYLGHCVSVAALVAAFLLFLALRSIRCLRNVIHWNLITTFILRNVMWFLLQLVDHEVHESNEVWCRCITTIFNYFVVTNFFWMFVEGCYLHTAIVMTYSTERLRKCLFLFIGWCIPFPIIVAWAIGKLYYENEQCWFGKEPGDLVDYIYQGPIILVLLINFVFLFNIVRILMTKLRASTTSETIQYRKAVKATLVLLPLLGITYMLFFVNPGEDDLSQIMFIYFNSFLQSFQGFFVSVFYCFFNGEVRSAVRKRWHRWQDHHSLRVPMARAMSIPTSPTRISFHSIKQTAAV
# T2 sequence (P24387 whole entry): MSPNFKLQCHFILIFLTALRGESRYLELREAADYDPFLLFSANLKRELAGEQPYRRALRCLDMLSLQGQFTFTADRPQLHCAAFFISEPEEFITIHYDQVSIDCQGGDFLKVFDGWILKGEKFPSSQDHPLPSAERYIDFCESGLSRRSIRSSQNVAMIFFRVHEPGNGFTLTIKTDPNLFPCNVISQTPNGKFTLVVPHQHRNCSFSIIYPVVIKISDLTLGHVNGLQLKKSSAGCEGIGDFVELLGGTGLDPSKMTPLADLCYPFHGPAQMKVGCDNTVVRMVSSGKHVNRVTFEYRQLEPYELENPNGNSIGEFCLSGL
# [6] = molecular target: T2, Corticotropin-releasing factor receptor 2/Corticotropin-releasing factor-binding protein; assay: Dose Response confirmation of uHTS hits for small molecule antagonists of the CRF-binding protein and CRF-R2 receptor complex.; format: functional; details: read-out: IC50_Mean
# INS1 = assay: INS-1E survival protection against cytokine death – cell-based, luminescence, retest, dose response (AID 449756); format: functional; details: Rattus norvegicus;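 further: cell death triggered by IL-1 beta plus TNF-alpha plus IFN-gamma mixture; protective hits raise ATP signal compared with cytokine alone wells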
# [7] = viability of uninfected HEp-2 cells – cell-based, HTS, cytotoxicity control for RSV inhibitor project, dose response (AID 2410); format: functional; details: human respiratory syncytial virus
# Cytochrome P450 2C19 = Cytochrome P450 2C19 (Homo sapiens, UniProt P33261); assay: Cytochrome panel assay with activity outcomes. Panel member name: p450-cyp2c19 Compounds with AC50 equal or less than 10 uM are considered active; format: functional
# Cytochrome P450 2C19, sequence (P33261 whole entry): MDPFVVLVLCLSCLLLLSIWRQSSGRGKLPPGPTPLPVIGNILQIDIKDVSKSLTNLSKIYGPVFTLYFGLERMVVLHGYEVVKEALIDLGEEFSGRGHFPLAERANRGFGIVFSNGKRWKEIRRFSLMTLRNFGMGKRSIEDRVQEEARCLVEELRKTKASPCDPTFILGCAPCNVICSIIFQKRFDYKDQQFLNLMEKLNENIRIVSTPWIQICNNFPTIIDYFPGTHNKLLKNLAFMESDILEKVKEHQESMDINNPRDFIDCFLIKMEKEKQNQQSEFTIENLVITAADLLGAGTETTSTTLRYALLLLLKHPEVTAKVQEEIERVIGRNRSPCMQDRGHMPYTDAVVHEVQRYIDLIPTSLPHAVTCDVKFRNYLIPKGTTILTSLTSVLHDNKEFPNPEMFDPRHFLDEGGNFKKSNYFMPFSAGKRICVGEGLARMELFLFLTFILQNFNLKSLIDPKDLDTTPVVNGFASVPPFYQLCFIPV
# Cytochrome P450 2D6, sequence (P10635 whole entry): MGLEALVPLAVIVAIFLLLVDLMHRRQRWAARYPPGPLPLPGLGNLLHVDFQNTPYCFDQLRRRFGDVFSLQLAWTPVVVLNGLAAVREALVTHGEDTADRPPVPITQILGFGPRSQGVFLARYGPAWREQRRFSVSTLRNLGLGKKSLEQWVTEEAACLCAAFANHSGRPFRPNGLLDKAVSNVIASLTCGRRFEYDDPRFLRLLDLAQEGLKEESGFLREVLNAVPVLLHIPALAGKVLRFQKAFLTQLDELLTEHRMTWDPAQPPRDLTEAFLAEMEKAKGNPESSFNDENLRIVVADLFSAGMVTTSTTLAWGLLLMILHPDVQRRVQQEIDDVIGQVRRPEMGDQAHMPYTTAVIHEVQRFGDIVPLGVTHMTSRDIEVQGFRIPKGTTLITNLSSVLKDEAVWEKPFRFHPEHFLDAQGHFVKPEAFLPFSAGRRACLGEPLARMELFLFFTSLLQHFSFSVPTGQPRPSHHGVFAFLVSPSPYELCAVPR
# Cytochrome P450 2C9, sequence (P11712 whole entry): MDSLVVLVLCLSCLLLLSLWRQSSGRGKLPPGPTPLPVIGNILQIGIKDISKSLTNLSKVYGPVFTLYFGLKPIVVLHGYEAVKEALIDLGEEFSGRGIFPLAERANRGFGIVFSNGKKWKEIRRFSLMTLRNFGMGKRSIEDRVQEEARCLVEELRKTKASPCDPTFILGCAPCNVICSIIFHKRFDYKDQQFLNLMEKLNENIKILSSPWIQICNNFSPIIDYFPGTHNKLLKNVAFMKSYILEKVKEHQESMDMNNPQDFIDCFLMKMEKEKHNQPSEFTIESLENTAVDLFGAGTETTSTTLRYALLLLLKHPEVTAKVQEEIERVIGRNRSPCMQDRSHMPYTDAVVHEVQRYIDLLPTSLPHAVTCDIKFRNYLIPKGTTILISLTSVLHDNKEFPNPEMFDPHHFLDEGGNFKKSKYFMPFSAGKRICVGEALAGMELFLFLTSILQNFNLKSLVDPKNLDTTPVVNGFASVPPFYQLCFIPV
# Cytochrome P450 3A4, sequence (P08684 whole entry): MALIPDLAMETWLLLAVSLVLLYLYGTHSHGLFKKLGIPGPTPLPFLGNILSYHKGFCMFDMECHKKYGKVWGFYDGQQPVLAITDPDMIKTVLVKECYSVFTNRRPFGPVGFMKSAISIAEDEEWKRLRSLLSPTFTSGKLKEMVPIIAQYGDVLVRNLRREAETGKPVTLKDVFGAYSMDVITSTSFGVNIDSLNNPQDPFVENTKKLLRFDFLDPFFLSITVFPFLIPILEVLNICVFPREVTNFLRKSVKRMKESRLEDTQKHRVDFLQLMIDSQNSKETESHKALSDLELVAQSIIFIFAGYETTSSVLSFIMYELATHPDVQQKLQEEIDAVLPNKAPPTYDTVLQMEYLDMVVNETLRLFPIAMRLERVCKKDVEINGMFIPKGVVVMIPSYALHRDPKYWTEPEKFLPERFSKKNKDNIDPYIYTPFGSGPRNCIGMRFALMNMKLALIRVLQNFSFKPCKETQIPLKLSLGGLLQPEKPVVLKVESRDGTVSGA
compound,measurement,setting,value
COc1ccc(CCNC(=O)c2c(N)n(CCN3CCOCC3)c3nc4ccccc4nc23)cc1OC,EC50,[1],13.3 µM (active)
same,EC50,[2],94.9 µM (active)
same,EC50,[3],> 120 µM (not active)
same,EC50,[4],> 120 µM (not active)
CN(CCc1ccc(Cl)c(Cl)c1)C[C@@H](O)COc1ccc(NS(C)(=O)=O)cc1,AC50,Cytochrome P450 1A2,15.8 µM (inconclusive)
same,AC50,Cytochrome P450 3A4,15.8 µM (inconclusive)
O=C(Nc1cccc(F)c1)N1CC[C@@]2(CCCN(C(=O)Oc3ccccc3)C2)C1,AC50,Cytochrome P450 1A2,15.8 µM (inconclusive)
same,AC50,Cytochrome P450 3A4,5.01 µM (inconclusive)
same,AC50,Cytochrome P450 2D6,20 µM (inconclusive)
Cc1cc(C)c(/C=C2/C(=O)Nc3ccccc32)[nH]1,AC50,Cytochrome P450 2C9,2.51 µM (inconclusive)
same,AC50,Cytochrome P450 2D6,0.398 µM (inconclusive)
Cn1cc(-c2nc3cncnc3n(Cc3ccc(F)cc3)c2=O)c2ccccc21,AC50,Cytochrome P450 1A2,1.26 µM (inconclusive)
CS(=O)(=O)Nc1cccc(-c2nc(N3CCNCC3)c3ccccc3n2)c1,AC50,Cytochrome P450 1A2,20 µM (inconclusive)
CCN(C(=O)CSc1cc(C)c2ccc(OC)cc2n1)C1CCS(=O)(=O)C1 (stereo not given),EC50,[5],> 53 µM (inactive)
same,IC50,[6],> 47.1 µM (inactive)
Cc1nc2ccccc2c(=O)n1/N=C/c1c(O)ccc2ccccc12,AC50,INS1,6.35 µM (active)
O=C(c1ccco1)N1CCN(c2ncnc3c2cnn3-c2ccccc2)CC1,CC50,[7],38.5 µM (active)
CC#CCCC(=O)N1C=Cc2ccccc2C1C#N (stereo not given),EC50,[5],> 53 µM (inactive)
same,IC50,[6],> 47.1 µM (inactive)
COc1ccc(/C(O)=C(\C#N)c2nc3ccccc3n2C)cc1OC,AC50,Cytochrome P450 2C9,0.251 µM (inconclusive)
same,AC50,Cytochrome P450 3A4,3.55 µM (inconclusive)
same,AC50,Cytochrome P450 2D6,1.58 µM (inconclusive)
same,AC50,Cytochrome P450 2C19; read-out: AC50,39.8 µM (inconclusive)
CCOc1ccc(C2C(C(=O)c3ccc4c(c3)OCCO4)=C(O)C(=O)N2CCCN2CCOCC2)cc1 (stereo not given),EC50,[5],> 53 µM (inactive)
same,IC50,[6],> 47.1 µM (inactive)
Cn1c(CC(=O)Nc2ccc(Cl)c(Cl)c2)nnc1SCC(=O)N1CCN(c2ccccc2)CC1,AC50,Cytochrome P450 1A2,15.8 µM (inconclusive)
same,AC50,Cytochrome P450 2D6,25.1 µM (inconclusive)
c1ccc(-c2ccc(N3CC4(CCNCC4)C3)cc2)cc1,AC50,Cytochrome P450 3A4,25.1 µM (inconclusive)
same,AC50,Cytochrome P450 2D6,25.1 µM (inconclusive)
C/C(=C\c1ccccc1)CN1CCC(C(=O)N2CCCCC2)CC1,EC50,[5],> 53 µM (inactive)
same,IC50,[6],> 47.1 µM (inactive)
O=C1C(c2ccccn2)=[N+]([O-])c2ccccc21,AC50,Cytochrome P450 1A2,0.158 µM (active)
CSc1cccc(NC(=O)C(C)C)c1,EC50,[5],> 53 µM (inactive)
same,IC50,[6],> 47.1 µM (inactive)
COc1ccccc1NC(=O)CCc1c(C)nc(O)c(C#N)c1C,AC50,Cytochrome P450 1A2,0.00631 µM (inconclusive)
same,AC50,Cytochrome P450 3A4,17.8 µM (inconclusive)
same,AC50,Cytochrome P450 2C19,inconclusive
CCOc1ccc(-c2c(=O)n(OCc3ccccn3)c3ccccc3[n+]2[O-])cc1,AC50,Cytochrome P450 1A2,12.6 µM (inconclusive)
same,AC50,Cytochrome P450 2C9,5.62 µM (inconclusive)
same,AC50,Cytochrome P450 3A4,12.6 µM (inconclusive)
same,AC50,Cytochrome P450 2C19; read-out: AC50,15.8 µM (inconclusive)
c1ccc(Nc2ncnc3ccc(-c4ccoc4)cc23)cc1,AC50,Cytochrome P450 2D6,20 µM (inconclusive)
Cc1ccc(C(=O)Nc2nnc(-c3ccco3)o2)cc1C,EC50,[5],> 53 µM (inactive)
same,IC50,[6],> 47.1 µM (inactive)
O=C(O)c1ccccc1NS(=O)(=O)c1ccc2c(c1)OCCO2,EC50,[5],> 53 µM (inactive)
same,IC50,[6],> 47.1 µM (inactive)
COc1cccc(Nc2ncc3nc(-c4cccs4)c(=O)n(-c4ccccc4)c3n2)c1,AC50,Cytochrome P450 1A2,3.16 µM (inconclusive)
same,AC50,Cytochrome P450 3A4,20 µM (inconclusive)
CC(=O)OC[C@H]1O[C@@H](O/N=C2/[C@H]3O[C@@H]3[C@@H](O)[C@H]3[C@H]2CCn2c(=O)n(-c4ccccc4)c(=O)n23)[C@H](OC(C)=O)[C@@H](OC(C)=O)[C@@H]1OC(C)=O,AC50,Cytochrome P450 2D6,3.16 µM (inconclusive)
same,AC50,Cytochrome P450 2C19,inconclusive

# — ChEMBL document CHEMBL1201862, “PubChem BioAssay data set” (2004)
